Data set [1] concerns C. albicans biofilms cultured on polystyrene. Format: cell-based, Candida albicans. The method, then:
(§1) Fungal strains were purchased from the Polish Collection of Microorganisms (Polish Academy of Science, Wroclaw, Poland). Four reference strains of Candida (C. albicans ATCC 10231, C. glabrata ATCC 15126, C. lypolytica PCM 2680, and C. tropicalis PCM 2680) were cultured on the Dextrose Sabouraud Agar (DSA, Neogen, Lansing, MI, USA). Before performing the assays, the fungi were cultured in a Sabouraud dextrose broth (DSB, Neogen, Lansing, MI, USA) for 48 h under aerobic conditions at 25 °C. Afterward, the fungal cultures were centrifuged (2500 rpm, 10 min) and resuspended in the appropriate liquid medium for appropriate inoculums for the performed assays.
Fungal suspensions in DSB were added to the wells at initial inoculums of ca. 5 × 10^6 CFU/mL and incubated under aerobic conditions, at 25 °C for 24 h, 48 h, and 72 h, in order to grow candidal biofilms of different maturity. After the appropriate time of incubation, the wells were washed with phosphoric buffered (PBS), and fresh RPMI medium supplemented with antifungals and the lipopeptides at graded concentrations (range […]) were added. The fungal biofilms were exposed to the compounds for 24 h (aerobic conditions, 25 °C). After the exposure to antifungals, the content of the wells was aspirated and a 0.01% solution of resazurin (Sigma-Aldrich, St. Louis, MO, USA) in DSB was added. Resazurin (blue) was applied as a cell viability reagent, which upon contact with living cells is reduced to a pink resorufin. The samples with the dye were incubated for 1 h at 25 °C and the absorbance was measured at 570 and 600 nm with a microplate reader (Thermo Fisher Scientific, Waltham, MA, USA). The assays were performed four times on four different days. The results are presented as the means of the measured percentage of metabolic activity (MA) of fungi in the well when compared with positive (sample with Candida in DSB) and negative controls (pure DSB), which were taken as 100% and 0%, respectively. The MA of Candida in the samples was measured according to the following formula:MA(%) = (ΔAbs of sample − ΔAbs of negative control)/(ΔAbs of positive control − ΔAbs of negative control);(1) ΔAbs = absorbance at 570 nm − absorbance at 600 nm.(2)
The MBEC was taken as the lowest concentration of antifungal which allowed us to reduce the metabolism of fungal cells to 10% (or less) of the positive control.

Data set [2] concerns Candida strains (C. albicans, C. glabrata, C. lipolytica, C. tropicalis). Format: cell-based. To be noted: MFCs equal to or twice as high as the corresponding MICs. The method, then: as §1
(§2) The strains cultured described in Section 4.1 were suspended in the Roswell Park Memorial Institute 1640 Medium (RPMI, Sigma-Aldrich, St. Louis, MO, USA) at an initial inoculum of ca. 5 × 10^3 CFU/mL. The stock solutions (1024 mg/L) of tested compounds in RPMI were added to 96-well polystyrene plates and diluted serially to well no. 10, leaving wells 11 and 12 for fertility and sterility controls. The tested Candida strains were exposed to graded concentrations (range 0.5–256 mg/L) of the lipopeptides and conventional antifungals (benzalkonium chloride, fluconazole, and nystatin) for 48 h under aerobic conditions at 25 °C. After incubation, the results were read visually.
(§3) Then the results were read visually. Both MIC as well as the MFC assays were performed threetimes on three different days.

For data set [3], the system named is C. tropicalis PCM 2680. Kind of data set: microbe, parasite or virus in culture. Conditions: MIC wells and two higher concentrations seeded on DSA, 48 h, 25 °C, read visually, three times. The format is cell-based, Candida tropicalis. The method, then:
as §1, §2, §3

Data set [4] has as its system C. glabrata ATCC 15126. Kind of data set: microbe, parasite or virus in culture. Format: cell-based, Candida glabrata. To be noted: first C. glabrata column; RPMI 1640, inoculum ca. 5 × 10^3 CFU/mL, range 0.5–256 mg/L, 48 h, 25 °C, read visually, three times on three days. The method, then:
as §1, §2

The subject of another data set is human red blood cells. To be noted: cited from earlier work. The text has this:
Table 2 Minimum inhibitory concentrations (MIC) and minimum fungicidal concentrations (MFC) determined for peptides and reference antifungals [g/L]. The highest antimicrobial activity is marked in green, medium values in yellow, while the weakest antifungal activity is marked in red. Minimum hemolytic concentration (MHC5%—causing hemolysis of 5% of human red blood cells) determined in previous stu | column: MHC5%

The subject of data set [5] is C. glabrata ATCC 15126. Kind of data set: microbe, parasite or virus in culture. Format: cell-based, Candida glabrata. To be noted: MIC wells and two higher concentrations seeded on DSA, 48 h, 25 °C, read visually, three times. The method, then: as §1, §2, §3
Data set [6] has as its system C. lypolytica PCM 2680. Kind of data set: microbe, parasite or virus in culture. Format: cell-based, Candida lipolytica. To be noted: MIC wells and two higher concentrations seeded on DSA, 48 h, 25 °C, read visually, three times. On the procedure: as §1, §2, §3
The subject of data set [7] is C. albicans ATCC 10231. Kind of data set: microbe, parasite or virus in culture. Format: cell-based, Candida albicans. To be noted: MIC wells and two higher concentrations seeded on DSA, 48 h, 25 °C, read visually, three times. The method, then: as §1, §2, §3
The test system of data set [8] is C. lypolytica PCM 2680. In words: microbe, parasite or virus in culture. Format: cell-based, Candida lipolytica. To be noted: RPMI 1640, inoculum ca. 5 × 10^3 CFU/mL, range 0.5–256 mg/L, 48 h, 25 °C, read visually, three times on three days. On the procedure: as §1, §2
Data set [9] concerns C. tropicalis PCM 2680. In words: microbe, parasite or virus in culture. Format: cell-based, Candida tropicalis. Conditions: for Minimum inhibitory concentration (MIC), C. tropicalis: RPMI 1640, inoculum ca. 5 × 10^3 CFU/mL, range 0.5–256 mg/L, 48 h, 25 °C, read visually, three times on three days. The method, then:
as §1, §2

The subject of data set [10] is C. albicans ATCC 10231. In words: microbe, parasite or virus in culture. Format: cell-based, Candida albicans. To be noted: for Minimum inhibitory concentration (MIC), C. albicans: RPMI 1640, inoculum ca. 5 × 10^3 CFU/mL, range 0.5–256 mg/L, 48 h, 25 °C, read visually, three times on three days. The method, then: as §1, §2
[11] abbreviates: human red blood cells, determined in previous studies, ref [13],[14].
[12] abbreviates: no inhibition at the highest concentration applied.

In brackets after ≈: the same amount, converted by molar mass. Read-outs that look alike come from different tables or passages of the source. Marks after values point to notes of the source that are not given here. Where a SMILES comes first, the peptide text is derived from it. The star is where a group is joined. Octanoyl = CCCCCCCC(=O)*; PhAc = O=C(Cc1ccccc1)*; Bz = O=C(c1ccccc1)* A value given as a limit tells only on which side of the number the result lay.

Regarding `C[C@@H]1[C@H](O)[C@@H](C)/C=C/C=C/CC/C=C/C=C/C=C/C=C/C(O[C@H]2O[C@H](C)[C@@H](O)[C@H](N)[C@@H]2O)CC2O[C@](O)(CC(O)C(O)CCC(O)CC(O)CC(O)CC(=O)O[C@H]1C)CC(O)C2C(=O)O` (some centres unmarked) [Nystatin, nystatin, reference compound], the “Antibiofilm concentration (256 mg/L) relative to the determined MIC” value in [1] (C. albicans biofilm) is “over 100 times”. Moreover, in data set [1] (C. albicans biofilm cultured on polystyrene for 24 h, exposure 24 h, 25 °C, RPMI, resazurin, metabolic activity reduced to 10% or less, four times on four days), the “MBEC 24 h” value is reported as 256 mg/L. Besides, in [1] (C. albicans biofilm cultured on polystyrene for 48 h, exposure 24 h, 25 °C, RPMI, resazurin, metabolic activity reduced to 10% or less, four times on four days), the “MBEC 48 h” value worked out at 256 mg/L. Besides, the “MBEC 72 h” value in [1] (C. albicans biofilm cultured on polystyrene for 72 h, exposure 24 h, 25 °C, RPMI, resazurin, metabolic activity reduced to 10% or less, four times on four days) came out at 256 mg/L. The “Fungicidal activity (MFC relative to MIC)” value in data set [2] is reported as “fungicidal activity against all Candida strains”.
As for `CC[C@H](C)[C@H](NC(=O)[C@H](CCCNC(=N)N)NC(=O)[C@H](CCC(N)=O)NC(=O)[C@@H](NC(=O)[C@@H](NC(=O)[C@H](CCCNC(=N)N)NC(=O)[C@H](CCCCN)NC(=O)c1ccccc1)[C@@H](C)CC)C(C)C)C(=O)N[C@@H](CCCCN)C(=O)N[C@@H](CC(=O)O)C(=O)N[C@@H](Cc1ccccc1)C(=O)N[C@@H](CC(C)C)C(=O)N[C@@H](CCCNC(=N)N)C(N)=O` [VIII, Benzoic acid-KR12-NH2] (Bz-KRIVQRIKDFLR-NH2), in the data set with C. tropicalis PCM 2680 [3], the “Minimum fungicidal concentration (MFC), C. tropicalis” value is 16 mg/L (≈ 9.55 µM). Further, in the data set with C. glabrata ATCC 15126 [4], the “Minimum inhibitory concentration (MIC), C. glabrata” value turned out to be 256 mg/L (≈ 153 µM). The “MHC5% (minimum hemolytic concentration causing hemolysis of 5% of human red blood cells)” value (“MHC5%” below) in the data set with human red blood cells (setting [11]) is >256 * g/L. Further, in the data set on C. glabrata ATCC 15126 [5], the “Minimum fungicidal concentration (MFC), C. glabrata” value is reported as 256 mg/L (≈ 153 µM). For the same molecule, the “Minimum fungicidal concentration (MFC), C. lipolytica” value in the data set on C. lypolytica PCM 2680 [6] turned out to be 32 mg/L (≈ 19.1 µM). In addition, in the data set with C. albicans ATCC 10231 [7], the “Minimum fungicidal concentration (MFC), C. albicans” value is recorded as 64 mg/L (≈ 38.2 µM). Also, the “Minimum inhibitory concentration (MIC), C. lipolytica” value in the data set with C. lypolytica PCM 2680 [8] was determined as 32 mg/L (≈ 19.1 µM). The “Minimum inhibitory concentration (MIC), C. tropicalis” value with C. tropicalis PCM 2680 [9] is 8 mg/L (≈ 4.78 µM). Besides, the “Minimum inhibitory concentration (MIC), C. albicans” value in the data set on C. albicans ATCC 10231 [10] was found to be 64 mg/L (≈ 38.2 µM).
`CCCCCCCC(=O)NCCCC[C@H](NC(=O)CCCCCCC)C(=O)N[C@@H](CCCNC(=N)N)C(=O)N[C@H](C(=O)N[C@H](C(=O)N[C@@H](CCC(N)=O)C(=O)N[C@@H](CCCNC(=N)N)C(=O)N[C@H](C(=O)N[C@@H](CCCCN)C(=O)N[C@@H](CC(=O)O)C(=O)N[C@@H](Cc1ccccc1)C(=O)N[C@@H](CC(C)C)C(=O)N[C@@H](CCCNC(=N)N)C(N)=O)[C@@H](C)CC)C(C)C)[C@@H](C)CC` [XVI, C8^α,C8^ε-KR12-NH2] (Octanoyl-K(Octanoyl)RIVQRIKDFLR-NH2): the “MHC5%” value with human red blood cells is >256 * g/L. In addition, in the data set with C. tropicalis PCM 2680 [9] (setting [12]), the “Growth inhibition of C. tropicalis (MIC)” value is “resistant”. Moreover, the “Growth inhibition of C. albicans (MIC)” value in the data set with C. albicans ATCC 10231 [10] (setting [12]) was “resistant”.
In the case of `CC[C@H](C)[C@H](NC(=O)[C@H](CCCNC(=N)N)NC(=O)[C@H](CCC(N)=O)NC(=O)[C@@H](NC(=O)[C@@H](NC(=O)[C@H](CCCNC(=N)N)NC(=O)[C@H](CCCCN)NC(=O)Cc1ccccc1)[C@@H](C)CC)C(C)C)C(=O)N[C@@H](CCCCN)C(=O)N[C@@H](CC(=O)O)C(=O)N[C@@H](Cc1ccccc1)C(=O)N[C@@H](CC(C)C)C(=O)N[C@@H](CCCNC(=N)N)C(N)=O` [XXI, Phenylacetic acid-KR12-NH2] (PhAc-KRIVQRIKDFLR-NH2), the “Minimum fungicidal concentration (MFC), C. tropicalis” value in the data set on C. tropicalis PCM 2680 [3] stood at 16 mg/L (≈ 9.47 µM). The “Minimum inhibitory concentration (MIC), C. glabrata” value with C. glabrata ATCC 15126 [4] was found to be 256 mg/L (≈ 152 µM). Besides, in the data set on human red blood cells (setting [11]), the “MHC5%” value was 256 g/L. Also, the “Minimum fungicidal concentration (MFC), C. glabrata” value in the data set on C. glabrata ATCC 15126 [5] came out at 256 mg/L (≈ 152 µM). Besides, the “Minimum fungicidal concentration (MFC), C. lipolytica” value in the data set with C. lypolytica PCM 2680 [6] is given as 16 mg/L (≈ 9.47 µM). For the same molecule, the “Minimum fungicidal concentration (MFC), C. albicans” value in the data set on C. albicans ATCC 10231 [7] is on record as 64 mg/L (≈ 37.9 µM). Besides, the “Minimum inhibitory concentration (MIC), C. lipolytica” value in the data set with C. lypolytica PCM 2680 [8] is listed as 16 mg/L (≈ 9.47 µM). For the same molecule, in the data set on C. tropicalis PCM 2680 [9], the “Minimum inhibitory concentration (MIC), C. tropicalis” value came to 8 mg/L (≈ 4.74 µM). In the data set with C. albicans ATCC 10231 [10], the “Minimum inhibitory concentration (MIC), C. albicans” value was found to be 64 mg/L (≈ 37.9 µM).

(Values after PMC11990879, “Anticandidal Activity of Lipopeptides Containing an LL-37-Derived Peptide Fragment KR12” (Molecules, 2025).)
